What is called mortality is the percentage killed.

The source of these data is patent US20030005484A1, “Microbiocidal and pesticidal aromatic aldehydes” (ProGuard, Inc., priority 1994, published 2003).

Each structure is given as a SMILES string. Values joined by “and” are separate entries in the source; they are usually repeats but may differ in a detail not shown here. Equal values may be shown once.

For data set [1], the system named is melon aphid (Aphis gossypii Glover). The data set can be described thus: melon aphid on chrysanthemum leaves, 5% HCA formulations. The class given is in vivo. The settings on record: 5% HCA (emulsion with 1% Tween 20 in water, or microencapsulated); 24 hours. Here is the method: For each test, treatment cartons received the active ingredient as a 5% aqueous emulsion or as microcapsules in either beeswax or carnauba wax. The negative control was a water only treatment. Sprays of each treatment were applied using a laboratory spray tower calibrated to spray the field equivalent of 113 liters per acre. The paper carton arenas were maintained at room temperature. Experimental cartons were examined at 24 hours post-treatment and % mortality determined (see FIG. 3). Every treatment regimen killed 100% of the melon aphids at 24 hours.

A further data set relates to grape phylloxera eggs. In words: whole plant or invertebrate. How it is done: Mixed age groups of 60 grape phylloxera eggs were established on filter paper (Whatman #1, 5.5 cm circles) in 50×9 mm sealed plastic petri dishes treated with 100 μl of solution. A selected concentration of a test formulation of 400 μl was added to the filter disk and the dish closed with the petri dish cover and placed in a plastic container box. After 6 hours, the box was placed in an environmental chamber at 24° C. in the dark. The eggs were placed in groups of 10. After one week, the percentage of hatch is determined. In an initial test, doses from 0.1 to 25,000 ppm cinnamic aldehyde in 6% NaHCO3 and 2% Tween 80 were evaluated with a single group of eggs at each dosage. Three replicates of the experiment were performed. […] LD50 and LD95 were determined by probit analysis.
Grape phylloxera eggs were treated with cinnamaldehyde (CNMA) in a 6% NaHCO3, 2% Tween-80 formulation in a laboratory bioassay. Mortality of the eggs was indicated by failure of the egg shell to split. […] Leaves of one-year-old greenhouse Vitis vinifera cultivar Merlot vines heavily infested with grape phylloxera were sprayed to run-off with a CNMA treatment using the same formulation. […] Roots taken from plants 1, 2 and 5 weeks after CNMA or other treatments were placed in Petri dish bioassays and infested with untreated phylloxera eggs.
Eggs of various age classes were placed on Whatman #1 filter paper moistened with enough treatment solution to form a meniscus about halfway up the sides of the eggs. The pieces of filter paper with eggs were maintained in sealed plastic Petri dishes at […] until they were 7 days old and then hatched individuals were counted. Hatch was considered successful if the […]

Data set [2] relates to thrips insects (Frankliniella occidentalis). In words: residual activity on filter paper against thrips. The class given is in vivo. The settings on record: residue on filter paper, rehydrated 24 and 72 hours after spraying; thrips mortality after one hour. Here is the method: In the first experiment, two ml of two concentrations of CNMA (0.3 and 1%) were sprayed on filter paper (Whatman). As a negative control, two ml of water also were sprayed on filter paper. Twenty-four hours later, two ml of water were sprayed on treatment and control filter paper, which were then dried for 30 min. Approximately 30 thrips insects (Frankliniella occidentalis) were introduced and the number of F. occidentalis were observed after one hour. Mean mortality was calculated for each treatment.
After 72 hours, the treatment filter papers were flipped over and only the negative control filter paper and the filter paper treated with 1% CNMA were sprayed with 2 ml of water and allowed to dry for 30 minutes. Approximately 30 thrips were introduced to the two treated filter papers and after one hour the number of dead F. occidentalis were observed and the mean mortality calculated for each treatment. A similar assay was conducted using a-hexyl cinnamaldehyde. Mean mortality was higher for rehydrated filter papers compared to non-rehydrated filter papers over time.

The conditions of data set [3]: 25° C; cited from earlier work.
Another data set relates to aphids. In words: aphids on sprayed roses. The class given is in vivo. The conditions noted are these: plants P3 (T2) and P4 (T1), each with >35 insects before treatment.
Another data set has as its system rust. In words: rust (and spores) on roses, disease rating / MPDC after foliar spray. Format: in vivo, Phragmidrium mucronatrum. Here is the method:
(§1) Each formulation is evaluated for its effect on specific pests and/or plant host using any of the compounds of formula (1) as well as other components of the formulation such as Tween 80 and/or sodium bicarbonate, with the combination and effective amount of each component adapted for a particular application to minimize toxicity while maintaining or increasing the antipathogenic effect of the formulation. The effective amount of each component may be determined by systematically varying the amount of that component in a test formulation, treating a plant of interest with the test formulation, and monitoring the level of pest infestation compared to an untreated control plant. An effective amount of a test component is identified as the amount that controls the growth of the pathogen on the plant host, thus reducing the disease rating of the plant. The mean percentage disease […] (MPDC) can be calculated for each particular application. MPDC is defined by the formula: [formula] Eight cultivars of rose were tested to investigate the effect of a cinnamic aldehyde/NaHCO3 formulation on rust and spores. The cultivars used included Moss unnamed (Moss), […], Rosette Delize (Hybrid Tea), Rosa Rugosa Rubra (Rugosa), Abel Morrison (Hybrid perpetual), John Laing, Betty Prior, and Rose de Roi. […] The Hybrid Tea and Hybrid perpetual were rated 3 and the Rugosa was rated 1. […] Control plants received no treatment. […] Moreover, the treatment appeared to have induced systemic resistance. […] Plants were an average of 0.86 m apart. […] Controls were untreated plants. […] Weekly reviews were made of the various plants. […] Six cultivars of infected rose in dedicated experimental rose gardens were used. Four Mrs. John Laing (Hybrid perpetual) and two Marchionese of Londonderry (Hybrid perpetual) rose plants were treated with one of two formulations of coniferyl aldehyde. […] The first two Mrs. […] Mrs. […] Both Marchionese of Londonderry plants (P5 and P6) were rated 5 for powdery mildew and rust after Paulus and Nelson (supra). Two treatment formulae were used for this trial. […] Control plants were sprayed with water alone. The change in the rating from pre-treatment to post-treatment was calculated as the mean percentage of disease control (MPDC) as described herein.

The subject of the next data set is powdery mildew. In words: powdery mildew on roses, disease rating / MPDC after foliar spray. Format: in vivo, Sphaerotheca pannosa. The conditions noted are these: for Powdery Mildew, Post (rating): ~100 ml spray; for Mean % Disease Control, rose powdery mildew: single 100 ml foliar spray. How it is done: as §1, with “herein. A three treatment experiment with cinnamic aldehyde formula, coniferyl aldehyde formula and combined cinnamic and coniferyl aldehyde formula was carried out on field grown roses known to be susceptible to powdery mildew. The plants were blocked by variety before fungicide treatments and were randomized as to the plants. Two varieties were used in each of the three experiments described below. […] In experiment 3 Comte de Chambord (Portland) and Madame Pierre Oger (Bourbon) were used. In Experiment 1, the effect of cinnamic aldehyde alone and in combination with Tween 80 and/or NaHCO3 component was evaluated in experiment 2 the effect of coniferyl aldehyde alone and in combination with Tween 80 and/or NaHCO3 was evaluated and in experiment 3 a combination of cinnamic aldehyde and coniferyl aldehyde with Tween 80 and/or NaHCo3 was evaluated. […] See Table 3 for the treatment protocol; formula 1 was used for these experiments. […] Plants were evaluated using the Paulus/Nelson scale just prior to and four days after treatment. […] Moreover, cinnamic aldehyde, coniferyl aldehyde, Tween 80 and NaHCO3 are used in the food industry and there is likely to be little toxicological risk to the consumer or handler from any horticultural or food crop sprayed in this way. Similarly, as these chemicals leave no toxic residue, there is little chance of any detrimental effect on the wider environment, and their use is likely to be compatible with current biological control methods such as beneficial insects and/or microorganisms.” for “herein.”

[4] abbreviates: 1000 ppm in 6% NaHCO3, 2% Tween 80, 7 days.
The mark [5] stands for this setting: T1 low dose: 5 g coniferyl aldehyde, 10 g Tween 80, 80 g NaHCO3 per 1000 g, plants P1, P4, P6.
Where [6] appears, read: T2 high dose: 100 g coniferyl aldehyde, 20 g Tween 80, 120 g NaHCO3 per 1000 g, plants P2, P3, P5.
[7] abbreviates: baseline before T1 low dose, plants P1, P4, P6.
The mark [8] stands for this setting: baseline before T2 high dose, plants P2, P3, P5.

Turning to `CCCCCC/C(C=O)=C/c1ccccc1` [HCA, 2-hexyl-3-phenyl-2-propenal], in data set [1], the melon aphids killed is on record as 100%. Besides, in the data set on grape phylloxera eggs (560 ppm, egg tests with CNMA analogs), the “egg hatch failure / mortality at 560 ppm” value is recorded as “no hatch failure at 560 ppm; rapid”. In addition, the mortality at 100 ppm in the data set with grape phylloxera eggs (Daktulosphaira vitifoliae, read-out: rapid nymphal mortality) was 100%. Also, the residual activity result in data set [2] is recorded as “have residual activity”. Also, the vapor pressure in data set [3] is reported as 70×10^−5 mm Hg.
As to `CCN(CC)c1cccc(C)c1` [N,N-diethyl-m-toluamine, reference compound], the vapor pressure in data set [3] is recorded as 167×10^−5 mm Hg.
On to `COc1cc(/C=C/C=O)ccc1O` [coniferyl aldehyde], for which, in the data set on grape phylloxera eggs (setting [4]), the “eggs hatched incompletely (IH)” value is listed as 85%. Besides, the “nymphs that died in the shell (DIS)” value in the data set with grape phylloxera eggs (setting [4]) was 12%; in the data set with grape phylloxera eggs (5000 ppm aldehyde in 6% NaHCO3, 2% Tween 80, 7 days) it was 10%. In addition, in the data set on aphids, the “aphids on treated rose plants” value is “eliminated”. The “Rust (rating), Change” value in the data set on rust (setting [5]) is 1 and 2; in the data set with rust (setting [6]), 3 and 4. Besides, the “Rust (rating), Post” value in the data set on rust (setting [6]) was 2 (2=26-50) and 1 (1=1-25). Also, the “Rust (rating), Pre” value in the data set with rust (setting [7]) was 3 (3=51-75) and 4 (4=76-90); in the data set with rust (setting [8]) it was 5 (5=>90% total leaves per bush). Also, the “Powdery Mildew, Post (rating)” value in the data set with powdery mildew (setting [5]) is 2 (2=26-50) and 1 (1=1-25); in the data set with powdery mildew (setting [6]), 2 (2=26-50) and 1 (1=1-25). For the same compound, the “Powdery Mildew, Change in rating” value in the data set on powdery mildew (setting [6]) is 3 and 4. For the same compound, the “Mean % Disease Control, rose powdery mildew” value in the data set on powdery mildew (aldehyde 5 g (mixture 2.5 g + 2.5 g) with NaHCO3 (80 g), four days) is 44%; with powdery mildew (aldehyde 5 g (mixture 2.5 g + 2.5 g) with T80 (10 g), four days), 44%; in the data set with powdery mildew (aldehyde 5 g (mixture 2.5 g + 2.5 g) with T80 + NaHCO3 (formulas G, M, Q), four days), 81%; in the data set on powdery mildew (aldehyde 5 g (mixture 2.5 g + 2.5 g), no additive, rated four days after treatment), 56%. Also, the “Powdery Mildew, Pre (rating)” value with powdery mildew (setting [7]) was 3 (3=51-75) and 4 (4=76-90); in the data set on powdery mildew (setting [8]), 5 (5=>90% total leaves per bush).
